According to patent publication US6673778B1, “Enzyme inhibitors for metabolic redirection” (The Board of Regents of the University of Nebraska, priority 1996, dated 2004):
Marks after values point to notes of the source that are not given here.

Experiments:
CYP2B1 mRNA = assay: Melting temperature (Tm) of ODNs used in Example 1; assay type: physicochemical, rat
From the text: The oligo 2B1-ATG (SEQ ID NO: 16) is a 22-mer having 100% complementarity to a region containing the AUG start codon on the rat CYP2B1 mRNA (SEQ ID NO: 39, shown below Table). The oligo 2B1-NRM (SEQ ID NO: 17) has 100% complementarity to the CYP2B1 mRNA starting at base 855. The oligo 2B1-BPB (SEQ ID NO: 36) has the sequence of 2B1-NRM with a two base deletion (indicated in bold in the 2B1-NRM sequence). Each of the oligos 2B1-3MM (SEQ ID NO: 37) and 2B1-CMM (SEQ ID NO: 38) has 2 bases reversed (indicated in bold) compared to the BPB sequence. […] The table gives the melting temperature (Tm), molecular weight, and % homology to CYP2B1 mRNA of each sequence.

rat CYP2B1 = assay: Hexobarbital sleep time in rats; assay type: in vivo
Protocol: Male Sprague-Dawley rats (Sasco, Omaha) weighing between 210 to 290 grams were used for all studies. They were housed in animal quarters at the University of Nebraska Medical Center AAALAC-approved Animal Resource Facility. The animals were exposed to 12 hour light/dark cycle and fed Purina rat chow and tap water ad libitum.
(§1) Rats were injected intraperitoneally (i.p.) with the indicated ODNs (see Table 3) once per day for 2 days, in an amount of lmg/kg body weight per injection. Control rats were injected with saline only. Rats in the “PB” groups were injected i.p. with phenobarbital (Mallinckrodt, St. Louis) at 80 mg/kg body weight per injection, once per day for 2 days. In the groups in which PB was co-administered with ODN, injections were administered simultaneously. Total volume of injections for all groups was […]. Animals in the “2B1-NRM+PB+PRETREATMENT” group also received a dose of 1 mg/kg of 2B1-NRM oligomer (SEQ ID NO: 17) 24 hours prior to the first administration of 2B1-NRM plus PB.
Forty-eight hours following the first (non-pretreatment) injection of ODN and/or PB, the rats were injected i.p. with 100 mg/kg body weight hexobarbital (Sigma, St. Louis), in a total volume of 1 ml/kg body weight, prepared fresh daily. Sleep time, defined as the time period from when the rat is placed on its back to when it regains its righting reflex, was measured. Sleep times are given in Table 5 as the mean of each animal in the group ±standard deviation.

CYP2B1 = assay: PROD assay of liver microsomes (CYP2B1 enzyme activity); assay type: in vivo, rat; settings: ODN alone
Protocol: Control rats were injected with saline only.
CYP2B1 enzyme activity was determined by pentoxyresorufin O-dealkylation (PROD) activity (Burke et al., 1985). For each microsomal sample, 1 mg protein in 1 ml 0.1 M potassium phosphate buffer, 1 ml 2 μM 5-pentoxyresorufin (Pierce, Rockford, Ill.), and 17 μl 60 mM NADPH were mixed and incubated for 10 minutes at 37° C. The mixture was then added to a 2 ml cuvette and read on a RF5000U spectrofluorophotometer (Shimadzu, Columbia, Md.), using an excitation wavelength of 530 nm and emission wavelength of 585 nm. Concentrations were calculated from a calibration curve of resorufin standards (Pierce, Rockford, Ill.). Results were recorded in nmol resorufin/mg protein/min.

CYP2B1 protein = assay: ELISA for CYP2B1 protein in liver microsomes; settings: for HRP activity (CYP2B1 ELISA): liver microsomes
Protocol: as §1
Microsomes were prepared, as described by Franklin and Estabrook (Arch. Biochem. Biophys. 143:318-29, 1971), for determination of enzyme level and activity. The rats were sacrificed using ethyl ether, and livers were perfused with 12 ml of 4% saline via the portal vein and then removed from the animal. The livers were minced, homogenized in 0.25 M sucrose (Sigma) and centrifuged at 8000×G for 20 minutes at 4° C. in a Sorvall RC2-B centrifuge (Dupont). The supernatant was saved, resuspended in 0.25 M sucrose, and centrifuged at 100,000×G for 45 minutes at 4° C. in a Sorvall OTD55B ultracentrifuge (Dupont). The pellet was resuspended in 1.15% KCl (Sigma) and centrifuged at 100,000×G for 1 hour at 4° C. The final pellet was resuspended in an equal volume buffer (10 mM Tris-acetate, 1 mM EDTA, 20% glycerol; Sigma) and frozen at −80° C.
Direct measurement of CYP2B1 protein was performed by an ELISA assay, using an antibody directed to the CYP2B1 protein (Schuurs and Van Weeman, Clin Chim Acta 81(1):1-40, 1977). Fifty μg of microsomal proteins per well were plated in 100 μl 0.35% sodium bicarbonate buffer overnight on a 96 well nunc-immuno plate (InterMed, Skokie, Ill.). The microsomes were washed 3× with 1% bovine serum albumin in PBS (PBS/BSA) and incubated for 1 hr at 37° C. with 200 μl PBS/BSA. The PBS/BSA was removed, and 50 μl of CYP2B1 antibody (Oxygene, Dallas) was added and incubated for 1 hour at 37° C. The microsomes were washed 5× with saline/Tween 20™ (Sigma), and 50 μl horseradish peroxidase (HRP)-conjugated secondary antibody (Bio-Rad) was added. The microsomes were incubated for 1 hour at 37° C., then washed 5× with saline/Tween 20™ and twice with 85% saline. HRP substrate (Kirkegaard & Perry Labs, Gaithersburg, Md.) (100 μl) was added, and the absorbance at 405 nm was read continuously in a microplate reader (Molecular Devices) for 1 hour. Results were recorded as HRP activity in mOD/min.

CYP2E1 = assay: Microsomal PNP (p-nitrophenol hydroxylase) activity; assay type: in vivo, rat; settings: liver microsomes
Protocol: Microsomal PNP (p-nitrophenol hydroxylase) activity was used as a measure of induction of CYP2E1, as PB is known to induce many different CYPs, including CYP2E1. CYP2E1 activity was determined by PNP activity as described in Reinke and Moyer, Drug Metab. Dispos. 13:548-52, 1985; Koop, Mol. Phannacol. 29:399404, 1986). Activity was recorded as optical density (OD) per milligram of protein per minute.

rat CYP3A2 = assay: Midazolam sleep time in rats; assay type: in vivo; settings: 1000 μg/day i.p.; MZ 50 mg/kg i.p.
Protocol: Male Sprague-Dawley rats (Sasco, Omaha) weighing between 210 to 290 grams were used for all studies. The animals were exposed to 12 hour light/dark cycle and fed Purina rat chow and tap water ad libitum.
Sleep time was measured after i.p. injection of 50 mg/kg MZ (Hoffman-La Roche, Nutley, N.J.) at 0 (day 1), 24 (day 2) and […]. The volume of the injection was from 2.0 to 2.4 ml/rat. […] […] Control rats received saline only. Total volume injection was 0.1 ml in saline.

CYP3A2 = assay: Erythromycin demethylation (ED) in liver microsomes; assay type: in vivo, rat; settings: 1000 μg/day i.p.
Protocol: Sleep time was measured after i.p. injection of 50 mg/kg MZ (Hoffman-La Roche, Nutley, N.J.) at 0 (day 1), 24 (day 2) and 48 h (day 4). The volume of the injection was from 2.0 to 2.4 ml/rat. […] The rats were treated with 0.25, 0.50 or 1.00 mg antisense ODN i.p. immediately after the animal had regained its righting reflex determined at 0 and 24 h. Control rats received saline only. Total volume injection was 0.1 ml in saline.
Microsomes were prepared, as described by Franklin and Estabrook (cited above) for determination of enzyme level and activity.
Erythromycin demethylation (ED) was used a measure of CYP3A2 enzymatic activity (Gonzalez, Pharmacol. Rev. 40:243-87, 1989). Activity was recorded as micromoles of formaldehyde per milligram of protein per minute.

[1] = treatment alone (ODN 1 mg/kg or PB 80 mg/kg i.p. once per day for 2 days), hexobarbital 100 mg/kg i.p. at 48 h
[2] = ODN + PB 80 mg/kg injected simultaneously, 2 days, hexobarbital 100 mg/kg i.p.

Molecule | Tm (CYP2B1 mRNA) [°C] | Effect on hexobarbital sleep time (in words) (rat CYP2B1; ODN alone, versus control) | Sleep time, Percent of Control (rat CYP2B1; treatment alone) | Sleep Time (min ± sd) (rat CYP2B1; [1]) | PROD activity versus control (in words) (CYP2B1) | HRP activity (CYP2B1 ELISA) (CYP2B1 protein; treatment alone) [mOD/min] | HRP activity versus control (in words) (CYP2B1 protein; treatment alone) | PNP activity versus control (in words) (CYP2E1; treatment alone) | Sleep time, Percent of Control (rat CYP2B1; ODN + PB) | Sleep Time (min ± sd) (rat CYP2B1; [2]) | Effect on hexobarbital sleep time (in words) (rat CYP2B1; ODN + PB, versus PB group) | HRP activity versus PB-alone group (in words) (CYP2B1 protein; ODN + PB) | HRP activity (CYP2B1 ELISA) (CYP2B1 protein; ODN + PB) [mOD/min] | PNP activity versus control (in words) (CYP2E1; ODN + PB) | also measured
2B1-3MM (antisense AAAGAAGAGAGAGCAGGGGA; chemistry not given here) | 49.8 | slightly lengthened sleep time over the control | 132.4% of Control | 31.0 ± 9.6 min | no change from control | 9.2 ± 5.0 | no change in HRP activity over control microsomes | no significant differences in PNP activities from control values | – | – | – | – | – | – | –
2B1-ATG (antisense GGAGCAAGATACTGGGCTCCAT; chemistry not given here) | 68.0 | did not significantly alter sleep time over control | 87.6% of Control | 20.5 ± 5.3 min | no change from control | 13.2 ± 4.4 | no change in HRP activity over control microsomes | no significant differences in PNP activities from control values | 82.5% of Control | 19.3 ± 4.4^b min | sleep time increased significantly over that of the PB group | a significant decrease in HRP activity over the PB-alone group | 12.9 ± 5.0 | significant increases in PNP activities over that of control | –
2B1-CMM (antisense AAAGAAGAGAAGGCAGGGAG; chemistry not given here) | 49.5 | did not significantly alter HB sleep time from the control | 98.2% of Control | 23.0 ± 5.3 min | no change from control | 10.1 ± 3.3 | no change in HRP activity over control microsomes | no significant differences in PNP activities from control values | – | – | – | – | – | – | –
2B1-NRM (antisense AAAGAAGAGAGAGAGCAGGGAG; chemistry not given here) | 50.6 | no effect on sleep time compared to control | 98.2% of Control | 23.0 ± 3.2 min | no change from control | 13.8 ± 5.6 | no change in HRP activity over control microsomes | no significant differences in PNP activities from control values | 57.7% of Control | 13.5 ± 0.9 min | no observable antisense effect | a decrease in HRP activity over that of the PB-alone treatment group | 17.9 ± 4.6 | significant increases in PNP activities over that of control | Effect on hexobarbital sleep time (in words) (rat CYP2B1; ODN pretreatment + PB): essentially the same as without pretreatment; Sleep time, Percent of Control (rat CYP2B1; ODN pretreatment + PB): 56.8% of Control; Sleep Time (min ± sd) (rat CYP2B1; ODN pretreatment one day before ODN + PB, 2 days, hexobarbital 100 mg/kg i.p.): 13.3 ± 3.0 min; HRP activity versus PB-alone group (in words) (CYP2B1 protein; ODN + PB + pretreatment): a decrease in HRP activity over that of the PB-alone treatment group; HRP activity (CYP2B1 ELISA) (CYP2B1 protein; ODN + PB/Pretreatment): 18.7 ± 0.3 mOD/min; PNP activity versus control (in words) (CYP2E1; ODN + PB + pretreatment): significant increases in PNP activities over that of control
CCC1(c2ccccc2)C(=O)NC(=O)NC1=O [Phenobarbital (PB), phenobarbital, reference compound] | – | – | 48.7% of Control | 11.4 ± 4.5^a min | – | 22.5 ± 4.2 | significantly greater than the activity of microsomes from control rats | significant increases in PNP activities over that of control | – | – | – | – | – | – | Sleep Time (min ± sd) (rat CYP2B1; treatment alone (ODN 1 mg/kg or PB 80 mg/kg i.p. once per day for 2 days), hexobarbital 100 mg/kg i.p. at 48 h, listed as PB): about 11.4 min
ATGMYC/PS: PS DNA myc control, SEQ ID NO: 44, 5′-ACGTTGAGGGGCAUCGTCC-3′ (DNA, all phosphorothioate, T or U not given here) | – | – | – | – | – | – | – | – | – | – | – | – | – | – | MZ ST (midazolam sleep time) (rat CYP3A2): 22.8 ± 1.3 min; ED (erythromycin demethylase activity) (CYP3A2): 113 μmol HCOH/mg/min
